Test results published in the CheMixHub ionic liquid set.

Assay: xn = mol fraction of the nth substance listed

OC[C@@H](O)[C@@H](O)[C@H](O)[C@@H](O)CO + CCCCCCCCCCCCCCCC[N+](C)(C)C.[Br-] + O
viscosity [mPa·s], 100 kPa
Conditions	298.15 K	308.15 K	318.15 K
x1 = 0.0007313, x2 = 1.441e-05	0.921	0.762	–
x1 = 0.0008985, x2 = 7.2e-06	0.923	–	0.634
x1 = 0.001226, x2 = 1.44e-05	–	0.774	–
x1 = 0.001311, x2 = 2.16e-05	0.942	0.779	0.644
x1 = 0.001618, x2 = 1.439e-05	0.949	–	0.649
x1 = 0.001661, x2 = 2.159e-05	0.954	0.788	0.651
x1 = 0.001736, x2 = 7.2e-06	0.949	–	0.651
x1 = 0.001867, x2 = 7.19e-06	–	0.788	0.654
x1 = 0.001983, x2 = 2.158e-05	0.964	–	0.658
x1 = 0.00199, x2 = 1.439e-05	0.96	0.793	0.657
x1 = 0.00225, x2 = 2.157e-05	0.973	0.803	0.664
x1 = 0.002345, x2 = 7.19e-06	0.968	0.799	0.663
x1 = 0.002374, x2 = 1.438e-05	0.972	0.803	0.665
x1 = 0.002657, x2 = 1.438e-05	0.981	0.81	0.67
x1 = 0.002734, x2 = 7.19e-06	0.98	0.809	0.671
x1 = 0.002734, x2 = 2.156e-05	0.989	0.816	0.674

CC[n+]1ccn(C)c1.F[B-](F)(F)F + C1COCCO1
100 kPa
Conditions	viscosity [mPa·s]
293.15 K, x2 = 0	50.5
298.15 K, x2 = 0.2149	26.8
303.15 K, x2 = 0	34.5
303.15 K, x2 = 0.1664	25.1
303.15 K, x2 = 0.2149	22.7
303.15 K, x2 = 0.5453	9.3
313.15 K, x2 = 0.2149	16.9
323.15 K, x2 = 0	18.6
323.15 K, x2 = 0.5077	6.59
323.15 K, x2 = 0.5453	5.93
333.15 K, x2 = 0.3591	7.8
333.15 K, x2 = 0.5077	5.42
353.15 K, x2 = 0.5453	3.52

CC[n+]1ccn(C)c1.F[B-](F)(F)F + OCCO
Conditions	viscosity [mPa·s]
293.15 K, 100 kPa, x2 = 0.6954	14.9
298.15 K, 100 kPa, x2 = 0.283	19.8
298.15 K, 100 kPa, x2 = 0.4435	15.1
303.15 K, 100 kPa, x2 = 0	34.5
303.15 K, 101 kPa, x1 = 0.4011	9.88
313.15 K, 100 kPa, x2 = 0.4435	9.71
313.15 K, 101 kPa, x1 = 0.4011	7.3
323.15 K, 100 kPa, x2 = 0.4435	7.57
323.15 K, 100 kPa, x2 = 0.5876	6.34
333.15 K, 100 kPa, x2 = 0.4435	6.08
333.15 K, 100 kPa, x2 = 0.5237	5.44
333.15 K, 100 kPa, x2 = 0.8751	4.42
333.15 K, 101 kPa, x1 = 0.0993	4.28
333.15 K, 101 kPa, x1 = 0.2001	4.08
343.15 K, 100 kPa, x2 = 0.4435	5.01
343.15 K, 100 kPa, x2 = 0.5876	4.13
353.15 K, 100 kPa, x2 = 0	9.58
353.15 K, 100 kPa, x2 = 0.5876	3.46
353.15 K, 100 kPa, x2 = 0.6954	3.07
353.15 K, 100 kPa, x2 = 0.7916	2.9

CCCCCCCCCCCC[P+](CCCC)(CCCC)CCCC.N#Cc1ccc[n-]1 + OCCN(CCO)CCO
100 kPa
Conditions	electrical conductivity [S/m]	viscosity [mPa·s]
293.15 K, x1 = 0.001	0.0001	–
293.15 K, x1 = 0.015	0.0027	–
293.15 K, x1 = 0.035	0.0034	1037
293.15 K, x1 = 0.121	–	1056
293.15 K, x1 = 0.538	0.0049	770
293.15 K, x1 = 1	0.0082	567
298.15 K, x1 = 0.035	–	670
298.15 K, x1 = 0.325	–	623
298.15 K, x1 = 0.755	–	477
298.15 K, x1 = 1	–	389
303.15 K, x1 = 0.017	–	436
303.15 K, x1 = 0.054	–	439
303.15 K, x1 = 0.325	–	421
303.15 K, x1 = 0.755	–	336
303.15 K, x1 = 1	–	297
313.15 K, x1 = 0.096	–	217
313.15 K, x1 = 0.325	–	209

CO + C[N+](C)(C)CCO.NCC(=O)[O-]
100 kPa, x2 = 0
Conditions	viscosity [mPa·s]
298.15 K	0.58
303.15 K	0.55
308.15 K	0.51
313.15 K	0.47
318.15 K	0.44
323.15 K	0.41

C[N+](C)(C)Cc1ccccc1.[Cl-] + OCC(O)CO
Conditions	electrical conductivity, 298 K [S/m]	viscosity, 288.15 K [mPa·s]	viscosity, 308 K [mPa·s]
100 kPa, x1 = 0.25	–	1875	–
101.13 kPa, x1 = 0.5	0.069	–	80

C[N+]1(CCOCC[N+]2(C)CCCC2)CCCC1.O=S(=O)([N-]S(=O)(=O)C(F)(F)F)C(F)(F)F.O=S(=O)([N-]S(=O)(=O)C(F)(F)F)C(F)(F)F + CC[n+]1ccn(C)c1.N#C[N-]C#N + O=S(=O)([N-]S(=O)(=O)C(F)(F)F)C(F)(F)F.[Li+]
100 kPa, x1 = 0.1626, x2 = 0.7364
Conditions	electrical conductivity [S/m]
298 K	0.806
303 K	1.08
313 K	1.43
323 K	1.82
333 K	2.2
343 K	2.65

CCCC[n+]1ccn(C)c1.CCOS(=O)(=O)[O-] + CC[n+]1ccn(C)c1.O=S(=O)([N-]S(=O)(=O)C(F)(F)F)C(F)(F)F
298.15 K, 100 kPa
Conditions	viscosity [mPa·s]
x2 = 0	255.2
x2 = 0.5013	87.6
x2 = 0.7113	57.11

CC[n+]1ccn(C)c1.F[B-](F)(F)F + CC(=O)N(C)C
Conditions	electrical conductivity [S/m]	viscosity [mPa·s]
283.15 K, 100 kPa, x1 = 0.0006798	0.03925	–
288.15 K, 100 kPa, x1 = 0.001378	0.07985	–
298.15 K, 100 kPa, x1 = 0.0004953	0.03615	–
303.15 K, 101 kPa, x2 = 0	–	28
303.15 K, 101 kPa, x2 = 0.1998	–	18.05
303.15 K, 101 kPa, x2 = 0.6	–	5.678
303.15 K, 101 kPa, x2 = 0.6996	–	3.833
303.15 K, 101 kPa, x2 = 0.8001	–	2.499
313.15 K, 100 kPa, x1 = 0.0006798	0.05765	–
313.15 K, 101 kPa, x2 = 0.5005	–	6.172
313.15 K, 101 kPa, x2 = 0.6	–	4.493
323.15 K, 101 kPa, x2 = 0	–	15.35
323.15 K, 101 kPa, x2 = 0.2995	–	8.36
333.15 K, 101 kPa, x2 = 0.2995	–	6.91
333.15 K, 101 kPa, x2 = 0.3989	–	5.375

CO + CC[n+]1ccn(C)c1C.F[B-](F)(F)F
Conditions	viscosity [mPa·s]
308.15 K, 101.3 kPa, x2 = 0	0.467

CC[n+]1ccn(C)c1.O=S(=O)([N-]S(=O)(=O)C(F)(F)F)C(F)(F)F + c1ccccc1
100 kPa
Conditions	viscosity [mPa·s]
298.15 K, x2 = 0.135	25.2
298.15 K, x2 = 0.339	15.64
318.15 K, x2 = 0.471	6.8
328.15 K, x2 = 0	13.68
328.15 K, x2 = 0.339	7.26

CCCC[n+]1ccn(C)c1.[I-] + F[B-](F)(F)F.[Li+]
Conditions	electrical conductivity [S/m]
308.15 K, 101 kPa, x2 = 0	0.0286

CCC[n+]1ccn(C)c1.COS(=O)(=O)[O-] + O
viscosity [mPa·s], 101 kPa
Conditions	298.15 K	308.15 K	318.15 K	328.15 K
x1 = 0.000281	0.799	0.699	0.62	0.566
x1 = 0.0007725	0.805	0.709	0.638	0.57
x1 = 0.0009344	0.814	0.717	0.642	0.575
x1 = 0.001368	0.819	0.727	0.647	0.58
x1 = 0.001628	0.813	0.735	0.66	0.588
x1 = 0.002412	0.829	0.758	0.658	0.602
x1 = 0.004829	0.838	0.796	0.702	0.647
x1 = 0.007746	0.886	0.847	0.757	0.701
x1 = 0.009565	0.931	0.888	0.81	0.736
x1 = 0.01237	0.999	0.93	0.865	0.79
x1 = 0.01639	1.113	1.021	0.963	0.878
x1 = 0.01912	1.182	1.072	1.017	0.953
x2 = 0.9709	1.48	1.268	1.247	1.122
x2 = 0.9746	1.387	1.205	1.167	1.054

CO/N=C(\C(=O)N[C@@H]1C(=O)N2C(C(=O)[O-])=C(CSc3nc(=O)c(=O)[n-]n3C)CS[C@H]12)c1csc(N)n1.[Na+].[Na+] + CCCCCC[n+]1ccc(C)cc1.[Br-] + O
viscosity [mPa·s], 100 kPa
Conditions	x1 = 0.0003495, x2 = 0	x1 = 0.0008732, x2 = 0	x1 = 0.001391, x2 = 0	x1 = 0.002502, x2 = 0	x1 = 0.00312, x2 = 0	x1 = 0.003888, x2 = 0	x1 = 0.004767, x2 = 0	x1 = 0.005484, x2 = 0
288.15 K	1.196	1.273	1.365	1.604	1.745	1.964	2.205	2.45
293.15 K	1.053	1.12	1.2	1.399	1.527	1.701	1.918	2.122
298.15 K	0.935	0.994	1.062	1.231	1.348	1.495	1.674	1.858
303.15 K	0.829	0.885	0.945	1.1	1.195	1.323	1.48	1.638
308.15 K	0.744	0.794	0.849	0.982	1.07	1.184	1.322	1.455

CC(O)C(=O)[O-].CCC[N+]1(C)CCCCC1 + CC#N
298 K, 101 kPa
Conditions	electrical conductivity [S/m]
x2 = 0.77	2.16
x2 = 0.823	2.56
x2 = 0.832	2.64
x2 = 0.838	2.76
x2 = 0.846	2.85
x2 = 0.851	2.85
x2 = 0.859	2.88
x2 = 0.863	2.92
x2 = 0.869	2.97
x2 = 0.872	2.98
x2 = 0.877	2.98
x2 = 0.881	3.01
x2 = 0.885	3.03
x2 = 0.888	3.06
x2 = 0.891	3.04
x2 = 0.893	3.06
x2 = 0.897	3.09
x2 = 0.9	3.09
x2 = 0.907	3.09
x2 = 0.909	3.09
x2 = 0.92	3.04
x2 = 0.933	2.92
x2 = 0.952	2.68

O=C[O-].OCC[NH2+]CCO + O
100 kPa
Conditions	viscosity [mPa·s]
293.15 K, x1 = 0.075	3.25
293.15 K, x1 = 0.3185	36.2
293.15 K, x1 = 1	471
303.15 K, x1 = 0.0292	1.34
303.15 K, x1 = 0.7987	172
313.15 K, x1 = 0.075	1.99
333.15 K, x1 = 0.3185	8.4
333.15 K, x1 = 0.7987	40.4
343.15 K, x1 = 0.5932	15.3
343.15 K, x1 = 1	35.9
